This is an account of results in patent US6617313B1, “Glucopyranoside and process of isolation thereof from pterocarpus marsupium pharmaceutical composition containing the same and use thereof” (Council of Scientific and Industrial Research, priority 2002, dated 2003).

The subject of one data set is pancreatic beta cells. The following applies: effect due to regeneration of pancreatic beta cells; claim questioned by Kolb et al and Sheehan et al; cited from earlier work.
The nature of data set [1]: hypoglycaemic / anti-diabetic activity of the isolated compound (no test described). Conditions: stated without test details.

For the compound `Oc1cc(O)c2c(c1)O[C@H](c1ccc(O)c(O)c1)[C@H](O)C2` [(−)-epicatechin], in the data set on pancreatic beta cells, the hypoglycemic principle entry is listed as “active hypoglycemic principle”.

As for `O=C1c2ccc(O)c(C3OC(CO)C(O)C(O)C3O)c2OC1(O)Cc1ccc(O)cc1` [formula 1, 2,6-dihydroxy-2-(P-hydroxybenzyl)-3(2H)benzofuran-7-C-β-D-glucopyranoside], the melting point (commonly the temperature, or range, at which the solid turns liquid) lay within 157 to 158 °C. Also, the hypoglycaemic activity entry in data set [1] was “shows hypoglycaemic activity”. For the same compound, in data set [1] (listed as 2,6-dihydroxy-2-(P-hydroxybenzyl)-3(2H)benzofuran-7-C-β-D-glucopyranoside), the anti-diabetic activity entry was “possesses anti-diabetic activity”. Also, the anti-diabetic activity result in data set [1] (listed as 2,6-dihydroxy-2-(p-hydroxybenzyl)-3(2H)benzofuran-7-C-β-D-glucopyranoside) was “antidiabetic activity”.
